pIC50: −log10 of the molar value. Read-outs that look alike come from different tables or passages of the source.
Tests used:
NF-κB [1] = experiment: NF-κB luciferase reporter activity in BV2 microglial cells stimulated with LPS; type: cell-based; details: BV-2 cells, LPS 100 ng/ml, 4 h
Protocol: An NF-κB specific luciferase reporter system in BV-2 microglial cells was first established. This cell line was generated by stable transfection of BV-2 cells with stable insertion of a luciferase reporter 4 kBwt luciferase plasmid and subsequent selection with hygomycin. LPS was used to stimulate NF-κB activity in these cells. Twenty-five thousand hygromycin B-resistant BV-2 cells were seeded per well in 24-well dishes and allowed to adhere overnight. The next morning, the culture medium (DMEM+10% FBS) was removed and 1 ml of fresh medium (DMEM without FBS) added to each well. The stock solutions of withanolides (2 mg/ml in DMSO) were diluted in 1×PBS to various concentration (0.05 to 5 uM) and added to the wells. LPS was added one hour later at a final concentration of 100 ng/ml. Four hours later, the BV-2 cells were rinsed with 1×PBS prior to proceeding with the luciferase assay that was performed according to the manufacturer's instructions (Bright-Glo™ luciferase assay system, Promega, Wis.).

NF-κB [2] = experiment: TNF-α-induced signalling activity in HEK293-NF-κB-luciferase reporter cell line; type: cell-based; details: HEK-293 cells; for pIC50: TNF-alpha 40 ng/ml, 4 h, luciferase; for inhibition of NF-κB expression: TNF-alpha, 0.05 to 5 uM, FIG. 3
Protocol: Ten thousand hygromycin B-resistant HEK-293 cells were seeded per well in a 96-well plate (Corning, New-York) and allowed to adhere overnight. The next morning, the culture medium (DMEM+10% FBS) was removed and […] of fresh medium (DMEM without FBS) added to each well. […] Human recombinant TNF-alpha (R&D Systems, Minneapolis) was added one hour later at a final concentration of 40 ng/ml. Four hours later, the HEK-293 cells were rinsed with 1×PBS prior to the luciferase assay, which was performed according to the manufacturer's instructions (Bright-Glo™ luciferase assay system, Promega, Wis.).

C57BL/6 female mice = details: i.p.; for clinical observations post-dosing: 65 mg/kg; for safety profile compared with WA: 20 to 65 mg/kg
[3] = system: LPS-induced astrogliosis (GFAP promoter luciferase reporter); details: GFAP-luc mice, LPS inhaled, 4 mg/kg i.p. 2 h after LPS and 2 h before imaging, imaging 24 h after LPS
Protocol: In vivo bioluminescence imaging was performed to asses the inflammatory response in the cranial region.
GFAP-luc transgenic mice were used to test in vivo the efficacy of these analogs. In these transgenic mice, the firefly luciferase reporter gene is under the control of a 12 kb DNA fragment of the glial fibrillary acidic protein (GFAP) promoter (Caliper Life Sciences). The luciferase reporter is inducible following LPS administration resulting in GFAP transcriptional regulation. If the administration of test compounds following the injection of LPS decreases LPS-induced astrogliosis in GFAP-luc mice, this is visualized as a reduced bioluminescent signal upon imaging.
Transgenic mice under anesthesia were induced to inhale either 5 ul of a solution of LPS (1 mg/ml in 0.9% saline) or a solution of 0.9% saline alone followed 2 h later by an intraperitoneal (i.p.) injection of 0.5 ml of the test compounds (10% dilution in 0.9% saline) at a final concentration of 4 mg/kg. The following day, 2 h before imaging (24 h after the administration of the LPS solution), the transgenic mice were again injected with the withanolides as previously. Twenty minutes prior to imaging, the mice received an i.p. injection of the luciferase substrate D-luciferin (150 mg/kg). D-luciferin was dissolved in 0.9% saline to a final concentration of 20 mg/ml. […]

[4] = system: TDP-43 A315T transgenic mice; details: 5 mg/kg i.p. every 2 days for 15 weeks
Protocol: The TDP-43 A315T mouse model for ALS is fully described in Swamp, V et al., Brain 134: 2610-2626 2011.
Male and female TDP-43 A315T mice of approximately 9 months and 25-55 gm were included in the study, and were randomly assigned to three groups, as follows:
Group 2 (n=7) (the control group) received vehicle (2% polysorbate [Tween-80]/5% DMSO/93% saline); and
The injection volume at 12.5 mL/kg was based on the body weight of each individual animal at the start of the study.
Accelerating rotarod (as described in Gros-Louis, F., et al. Hum Mol Genet 17, 2691-2702 (2008)) was performed prior to first dosing and at weekly interval during the study. Testing was performed at 4-rpm speed with 0.25 rpm/s acceleration. Each mouse was subjected to three trials per session. The number of seconds each mouse remained on the rotarod apparatus for each trial was recorded.

Question: `COCC1=C(C)C[C@H]([C@@H](C)[C@H]2CC[C@H]3[C@@H]4C[C@H]5O[C@]56[C@@H](OC)C=CC(=O)[C@]6(C)[C@H]4CC[C@]23C)OC1=O` [4,27-O-dimethyl WA, 4,27-O-dimethylwithaferin A] was tested. Which pIC50 (NF-κB [1]) did it give?
Answer: 6.10

Question: What about the pIC50 (NF-κB [2]) of the same compound?
Answer: 6.35

Question: And the “inhibition of NF-κB expression” value (NF-κB [2])?
Answer: inhibited NF-κB expression

Question: Which results are given for `CO[C@H]1C=CC(=O)[C@]2(C)[C@H]3CC[C@]4(C)[C@@H]([C@H](C)[C@H]5CC(C)=C(CO)C(=O)O5)CC[C@H]4[C@@H]3C[C@H]3O[C@]132` [4-O-methyl WA, 4-O-methylwithaferin A]?
Answer: pIC50 (NF-κB [1]): 6.01; mortality (C57BL/6 female mice; 55 mg/kg): no mortality; clinical observations post-dosing (C57BL/6 female mice): some weakness and a decrease in activity; mortality (C57BL/6 female mice; 65 mg/kg (highest dose tested)): no mortality; safety profile compared with WA (C57BL/6 female mice): much better safety profile than WA; bioluminescent signal in brain (astrogliosis) compared to saline-DMSO [3]: significant decrease; pIC50 (NF-κB [2]): 6.49; inhibition of NF-κB expression (NF-κB [2]): inhibited NF-κB expression; rotarod performance over the 15 week period [4]: improved

Question: With `COCC1=C(C)C[C@H]([C@@H](C)[C@H]2CC[C@H]3[C@@H]4C[C@H]5O[C@]56[C@@H](O)C=CC(=O)[C@]6(C)[C@H]4CC[C@]23C)OC1=O` [27-O-methyl WA, 27-O-methylwithaferin A] as the compound, how does the pIC50 (NF-κB [1]) read?
Answer: 6.15

Question: What about the mortality (C57BL/6 female mice; 55 mg/kg) of the same compound?
Answer: no mortality

Question: What about the clinical observations post-dosing (C57BL/6 female mice) of the same compound?
Answer: some weakness and a decrease in activity

Question: And the mortality (C57BL/6 female mice; 65 mg/kg (highest dose tested))?
Answer: no mortality

Question: And the “safety profile compared with WA” value (C57BL/6 female mice)?
Answer: much better safety profile than WA

Question: And the “bioluminescent signal in brain (astrogliosis) compared to saline-DMSO” value [3]?
Answer: significant decrease

Question: And the pIC50 (NF-κB [2])?
Answer: 6.59

Question: What about the “inhibition of NF-κB expression” value (NF-κB [2]) of the same compound?
Answer: inhibited NF-κB expression

Question: And the “rotarod performance over the 15 week period” value [4]?
Answer: improved

Question: What does the source list for `CC1=C(CO)C(=O)O[C@@H]([C@@H](C)[C@H]2CC[C@H]3[C@@H]4C[C@H]5O[C@]56[C@@H](O)C=CC(=O)[C@]6(C)[C@H]4CC[C@]23C)C1` [WA, Withaferin A, reference compound]?
Answer: pIC50 (NF-κB [1]; Mus musculus): 6.30; pIC50 (NF-κB [2]; Homo sapiens, HEK293): 6.47

Reference: US11472832B2, “Withanolides useful for the treatment of neurodegenerative diseases” (priority 2013, dated 2022)
